From US11571403B2, “Methods for the treatment of non-alcoholic steatohepatitis” (Eiger Biopharmaceuticals, Inc., priority 2016, dated 2023)

Key:
[1] = system: STAM model of NASH fibrosis; assay: NAFLD Activity Score by HE staining, STAM model of NASH with fibrosis (Example 3); assay type: in vivo, mouse; settings: for Steatosis score 0, number of mice: score 0 = <5%; for Hepatocyte ballooning score 0, number of mice: score 0 = None; for Steatosis score 1, number of mice: score 1 = 5-33%; for Hepatocyte ballooning score 1, number of mice: score 1 = Few balloon cells; for Lobular inflammation score 2, number of mice: score 2 = 2-4 foci/200x; for Steatosis score 2, number of mice: score 2 = >33-66%; for Hepatocyte ballooning score 2, number of mice: score 2 = Many cells/prominent ballooning; for Lobular inflammation score 3, number of mice: score 3 = >4 foci/200x
Procedure: (§1) Ubenimex or telmisartan was administered orally in a volume at 10 mL/kg. Ubenimex was administered at a dose of 5 mg/kg once daily or twice daily. Telmisartan was administered at a dose of 5 mg/kg once daily.
For HE staining, sections were cut from paraffin blocks of liver tissue prefixed in Bouin's solution and stained with Lillie-Mayer's hematoxylin (Muto Pure Chemicals Co., Ltd., Japan) and eosin solution (Wako Pure Chemical Industries, Ltd., Japan). NAFLD Activity Score (NAS) was calculated according to the criteria of Kleiner (Kleiner et al., Hepatology, 2005, 41:1313). To visualize collagen deposition, Bouin's fixed liver sections were stained using picro-Sirius red solution (Waldeck, Germany). For quantitative analysis of fibrosis area, bright field images of Sirius red-staining sections were captured around the central vein using a digital camera (DFC295; Leica, Germany) at 200-fold magnification, and the positive areas in 5 fields/section were measured using ImageJ software (National Institutes of Health, USA).
Statistical tests: Statistical analyses were performed using Bonferroni Multiple Comparison Test on GraphPad Prism 6 (GraphPad Software Inc., USA). P values <0.05 were considered statistically significant. A trend or tendency was assumed when a one-tailed t-test returned P values <0.1. Results were expressed as mean±SD.
(§2) Study groups: The following study groups were used. Group 1 (Vehicle): 8 NASH mice were orally administered vehicle (RO water) in a volume of 10 mL/kg twice daily from 6 to 11 weeks of age. Group 2 (Ubenimex QD for 5 weeks): 8 NASH mice were orally administered vehicle supplemented with ubenimex at a dose of 5 mg/kg once daily from 6 to 11 weeks of age. Group 3 (Ubenimex BID for 5 weeks): 8 NASH mice were orally administered vehicle supplemented with ubenimex at a dose of 5 mg/kg twice daily from 6 to 11 weeks of age. Group 4 (Ubenimex BID for 2 weeks): 8 NASH mice were orally administered vehicle supplemented with ubenimex at a dose of 5 mg/kg twice daily from 9 to 11 weeks of age. Group 5 (Telmisartan for 5 weeks): 8 NASH mice were orally administered pure water supplemented with telmisartan at a dose of 5 mg/kg once daily from 6 to 11 weeks of age.

[2] = system: STAM mouse model for NASH; assay: Fibrosis area by Sirius red staining, STAM mouse NASH model (Example 1); assay type: in vivo; settings: 7 to 9 weeks of age
Text: (§3) The STAM™ mouse is a model for NASH created by a combination of chemical and dietary interventions in C57BL/6 mice that manifest NASH at about 8 weeks, which progresses to fibrosis at about 12 weeks and then progresses to HCC at about 16 weeks. See, Saito et al., Sci. Rep. 2015, 5:12466.
(§4) In the study, the control groups were as follows: (i) Untreated Disease Control—a group of STAM mice injected with streptozotocin (STZ, Sigma-Aldrich, USA) at 2 days old, and fed a high fat diet (HFD, 57 kcal % fat, Cat #HFD32, CLEA Japan, Japan) starting at 4 weeks old; and (ii) Positive Control—a group of STAM mice treated with telmisartan (10 mg/kg QD from 7 to 9 weeks). In addition to these control groups, test groups of STAM mice treated with a low dose of ubenimex (5 mg/kg ubenimex BID from 7 to 9 weeks) or a high dose of ubenimex (25 mg/kg BID from 7 to 9 weeks), were included in the study. The low dose is equivalent to a human dose of 30 mg BID. The high dose is equivalent to a human dose of 150 mg BID. The viability, clinical signs and behavior were monitored daily, including body weight, signs of toxicity, moribundity and mortality. The mice were maintained in a SPF facility under controlled conditions of temperature (23±2° C.), humidity (45±10%), lighting (12-hour artificial light and dark cycles; light from 8:00 to 20:00) and air exchange. A high pressure was maintained in the experimental room to prevent contamination of the facility. The mice were housed in TPX cages (CLEA Japan) with a maximum of 4 mice per case.
(§5) All groups of mice were sacrificed at 9 weeks. Once sacrificed, the body weight of each mouse was recorded. The liver of each mouse was removed and weighed. The liver-to-body weight ratio was determined for each mouse. Blood serum levels of CK-18, ALT, and liver triglycerides were determined for each mouse. The livers were then sectioned and stained with hematoxylin and eosin (“HE”) stain, as well as Sirius red staining, to determine liver steatosis (ballooning) and fibrosis, respectively.

[3] = system: STAM mouse model for NASH; assay: Biochemistry: plasma ALT and liver triglyceride, STAM mouse NASH model (Example 1); assay type: in vivo; settings: 7 to 9 weeks of age
Text: as §3, §4, §5

[4] = system: STAM model of NASH fibrosis; assay: Biochemistry: plasma ALT and liver triglyceride, STAM model of NASH with fibrosis (Example 3); assay type: in vivo, mouse
Procedure: as §1
For plasma biochemistry, blood was collected in polypropylene tubes with anticoagulant (Novo-Heparin, Mochida Pharmaceutical Co. Ltd., Japan) and centrifuged at 1,000×g for 15 minutes at 4° C. The supernatant was collected and stored at −80° C. until use. Plasma ALT level was measured by FUJI DRI-CHEM 7000 (Fujifilm, Japan).
Liver total lipid-extracts were obtained by Folch's method (Folch et al., J. Biol Chem, 1957, 226:497). Liver samples were homogenized in chloroform-methanol (2:1 v/v) and incubated overnight at room temperature. After washing with chloroform-methanol-water (8:4:3 v/v/v), the extracts were evaporated to dryness and dissolved in isopropanol. Liver triglyceride content was measured by Triglyceride E-test (Wako Pure Chemical Industries, Ltd., Japan).
as §2

[5] = system: STAM mouse model for NASH; assay: Plasma CK-18, STAM mouse NASH model (Example 1); assay type: in vivo
Text: as §3, §4, §5

[6] = ubenimex 5 mg/kg BID oral, 6 to 11 weeks of age
[7] = ubenimex 5 mg/kg BID oral, 9 to 11 weeks of age
[8] = ubenimex 5 mg/kg QD oral, 6 to 11 weeks of age
[9] = telmisartan 5 mg/kg QD oral, 6 to 11 weeks of age

CC(C)C[C@H](NC(=O)[C@@H](O)[C@H](N)Cc1ccccc1)C(=O)O [Ubenimex, (2S)-2-[[(2S,3R)-3-amino-2-hydroxy-4-phenylbutanoyl]amino]-4-methylpentanoic acid]
Steatosis score 0, number of mice [1, 6]: 1 | Steatosis score 0, number of mice [1, 7]: 1 | Hepatocyte ballooning score 0, number of mice [1, 6]: 5 | Hepatocyte ballooning score 0, number of mice [1, 7]: 4 | Hepatocyte ballooning score 0, number of mice [1, 8]: 2 | Steatosis score 1, number of mice [1, 6]: 4 | Steatosis score 1, number of mice [1, 7]: 4 | Steatosis score 1, number of mice [1, 8]: 6 | Lobular inflammation score 1, number of mice ([1]; score 1 = <2 foci/200x, ubenimex 5 mg/kg QD oral, 6 to 11 weeks of age): 1 | Hepatocyte ballooning score 1, number of mice [1, 7]: 1 | Hepatocyte ballooning score 1, number of mice [1, 8]: 4 | Lobular inflammation score 2, number of mice [1, 6]: 2 | Lobular inflammation score 2, number of mice [1, 7]: 4 | Lobular inflammation score 2, number of mice [1, 8]: 3 | Steatosis score 2, number of mice [1, 6]: 1 | Steatosis score 2, number of mice [1, 7]: 1 | Hepatocyte ballooning score 2, number of mice [1, 6]: 1 | Hepatocyte ballooning score 2, number of mice [1, 7]: 1 | Lobular inflammation score 3, number of mice [1, 6]: 4 | Lobular inflammation score 3, number of mice [1, 7]: 2 | Lobular inflammation score 3, number of mice [1, 8]: 2 | NAS (mean ± SD) [1, 6]: 4.0 ± 1.7 | NAS (mean ± SD) [1, 7]: 3.8 ± 1.0 | NAS (mean ± SD) [1, 8]: 3.8 ± 0.8 | Sirius red-positive area (fibrosis area, mean ± SD) ([2]; ubenimex 5 mg/kg BID): 0.80 ± 0.16% | Sirius red-positive area (fibrosis area, mean ± SD) ([2]; ubenimex 25 mg/kg BID): 1.05 ± 0.14% | Liver triglyercide (mean ± SD) ([3]; ubenimex 5 mg/kg BID): 50.0 ± 22.7 mg/g liver | Plasma ALT (mean ± SD) ([3]; ubenimex 5 mg/kg BID): 59 ± 22 U/L | Liver triglyercide (mean ± SD) ([3]; ubenimex 25 mg/kg BID): 34.8 ± 22.2 mg/g liver | Plasma ALT (mean ± SD) ([3]; ubenimex 25 mg/kg BID): 62 ± 11 U/L | Liver triglyceride (mean ± SD) [4, 6]: 59.6 ± 21.4 mg/g liver | Plasma ALT (mean ± SD) [4, 6]: 52 ± 21 U/L | Liver triglyceride (mean ± SD) [4, 7]: 62.0 ± 33.5 mg/g liver | Plasma ALT (mean ± SD) [4, 7]: 47 ± 24 U/L | Liver triglyceride (mean ± SD) [4, 8]: 58.6 ± 24.4 mg/g liver | Plasma ALT (mean ± SD) [4, 8]: 85 ± 64 U/L | Plasma CK-18 ([5]; high dose ubenimex group (25 mg/kg BID, 7 to 9 weeks)): 230.8±28.6 mIU/mL | Plasma CK-18 ([5]; low dose ubenimex group (5 mg/kg BID, 7 to 9 weeks)): 238.5±7.7 mIU/mL

CCCc1nc2c(C)cc(-c3nc4ccccc4n3C)cc2n1Cc1ccc(-c2ccccc2C(=O)O)cc1 [Telmisartan, telmisartan]
Steatosis score 0, number of mice [1, 9]: 1 | Lobular inflammation score 0, number of mice ([1]; score 0 = No foci, telmisartan 5 mg/kg QD oral, 6 to 11 weeks of age): 1 | Hepatocyte ballooning score 0, number of mice [1, 9]: 3 | Steatosis score 1, number of mice [1, 9]: 5 | Hepatocyte ballooning score 1, number of mice [1, 9]: 3 | Lobular inflammation score 2, number of mice [1, 9]: 3 | Lobular inflammation score 3, number of mice [1, 9]: 2 | NAS (mean ± SD) [1, 9]: 3.3 ± 1.0 | Sirius red-positive area (fibrosis area, mean ± SD) ([2]; telmisartan 10 mg/kg QD): 0.71 ± 0.15% | Liver triglyercide (mean ± SD) ([3]; telmisartan 10 mg/kg QD): 22.4 ± 7.5 mg/g liver | Plasma ALT (mean ± SD) ([3]; telmisartan 10 mg/kg QD): 44 ± 13 U/L | Liver triglyceride (mean ± SD) [4, 9]: 24.6 ± 8.4 mg/g liver | Plasma ALT (mean ± SD) [4, 9]: 36 ± 11 U/L | Plasma CK-18 ([5]; telmisartan group (10 mg/kg QD, 7 to 9 weeks)): 284.5±38.4 mIU/mL
